Test results as given in publication PMC4585835 (Scientific Reports, 2015).
Where two headings read alike, the source gives them in different places. Where a SMILES comes first, the peptide text is derived from it. [ ]: non-standard residue; d: D form. The star is where a group is joined. Stearoyl = CCCCCCCCCCCCCCCCCC(=O)*

What was measured:
[1] = Bleeding time test (BT) in rats; format: in vivo, rat; conditions: for increase on the bleeding time compared with the saline group: 30 min; for bleeding time (BT): 30 min after administration
Procedure: Bleeding time was determined as reported previously. Male SD rats (180–220 g) were divided into 6 groups (n = 8). […] Thirty minutes after the injection, bleeding was induced by tail transection of the anesthetized rat with a size 21 disposable scalpel blade 2 mm from the tail tip. The bleeding tail was wiped with filter paper every 30 s, and the bleeding time was recorded when no blood was observed on the filter paper.

[2] = Pharmacokinetics in rats, i.v.; format: in vivo; conditions: rat
Procedure: SD Rats were randomly divided into three groups (n = 5). […] All blood samples were immediately centrifuged at 5000 rpm for 5 min at room temperature, and the plasma obtained was stored at −20 °C before analysis. To the rat plasma (100 μL) was added 10 μL internal standard (80 ~ 100 ng/ml Carbamazepine), followed by mixing with 200 μL methanol with vortexing for 1 min. At this stage, certain amounts of proteins may precipitate out, thus this mixture was centrifuged at 12,000 rpm for 5 min at room temperature to achieve complete separation. The 20 μl supernatant was injected into a HPLC (Symbiosis, Spark, Holland; column: 50 mm × 2.1 mm, 5 μm, Agilent Eclipse Plus) –MS/MS system (ABI 4000 Q-Trap triple quadrupole mass spectrometer) equipped with electrospray ionization (ESI) source in the positive ion mode (Foster City, USA). The HPLC elution gradient was as follows: 0–0.5 min, 5–5% (B); 0.5–3 min, 5–95% (B); 3–4 min, 95–95% (B); 4–4.06 min, 95–5% (B); 4.06–6 min, 5–5% (B); the flow-rate was 0.4 ml/min; A was 0.1% formic acid/Waterl, B was 0.1% formic acid/methanol. The MS parameters were: CUR10Psi; Ion Spray Voltage (IS) 5500v; Collision activated dissociation (CAD) High, Gas1 = 50 psi, Gas2 = 50 psi, TEM = 500 °C.
All three peptides remained stable in plasma during three freeze/thaw cycles, at room temperature for at least 2 h. The supernatant of plasma samples were also found to be stable for at least 24 h at 10 °C in the autosampler.
The statistical significance of the difference among pharmacokinetic parameters was determined using the mean comparison Student’s t-test, and the resulting P values were lower than 0.05, which is considered to be statistically significant.

human thrombin = molecular target: T1, human thrombin (Homo sapiens, UniProt P00734); test: Degradation mediated by human thrombin (HPLC); format: in vitro ADME; conditions: human thrombin (69 NIH/mL) in Tris-HCl buffer, pH 8, 69 NIH/ml human thrombin, peptide 0.41 mM, 37 °C, read-out: peptide remained after reaction with human thrombin
T1 construct: purchased National Institute for the Control of Pharmaceutical and Biological Products (Beijing, China)
Procedure: The catalytic cleavage of peptides mediated by thrombin was also examined using the same method. Specifically, a peptide solution (0.41 mM) was first incubated with thrombin (69 NIH/mL) in Tris-HCl buffer (70 mM Tris HCl, NaCl 50 mM, pH = 8.0) at 37 °C.

[3] = SD, plasma, iv, 1 umol/kg, 1 μmol/kg i.v., n = 5

Structure (SMILES): CCCCCCCCCCCCCCCCCC(=O)NCCCC[C@H](NC(=O)CNC(=O)[C@@H]1CCCN1C(=O)[C@H](CCCNC(=N)N)NC(=O)[C@@H]1CCCN1C(=O)[C@H](N)Cc1ccccc1)C(=O)NCC(=O)NCC(=O)N[C@@H](CCC(N)=O)C(=O)NCC(=O)N[C@@H](CC(=O)O)C(=O)N[C@@H](Cc1ccccc1)C(=O)N[C@@H](CCC(=O)O)C(=O)N1CCC[C@H]1C(=O)N[C@H](C(=O)N1CCC[C@H]1C(=O)N[C@@H](CCC(=O)O)C(=O)N[C@@H](CC(=O)O)C(=O)N[C@@H](C)C(=O)N[C@@H](Cc1ccc(O)cc1)C(=O)N[C@@H](CC(=O)O)C(=O)N[C@@H](CCC(=O)O)C(N)=O)[C@@H](C)CC [Peptide S2] (H-[dF]PRPGK(Stearoyl)GGQGDFEPIPEDAYDE-NH2; N-terminus assumed)
- increase on the bleeding time compared with the saline group ([1]; 0.5 mg/kg): 29.03%
- bleeding time (BT) ([1]; 0.5 mg/kg): 300.00 ± 35.86 s
- increase on the bleeding time compared with the saline group ([1]; 1.0 mg/kg): 122.58%
- bleeding time (BT) ([1]; 1.0 mg/kg): 517.50 ± 38.45 s
- increase on the bleeding time compared with the saline group ([1]; 2.0 mg/kg): 174.19%
- bleeding time (BT) ([1]; 2.0 mg/kg): 637.50 ± 74.79 s
- AUC(0-inf) [2, 3]: 26.5 µM·h
- Cmax [2, 3]: 10.1 ± 1.1 µM
- clearance [2, 3]: 0.7 ± 0.1 mL/min/kg
- AUC(0-t) ([2]; SD, plasma, iv, 1 umol/kg, 1 μmol/kg i.v., n = 5, read-out: AUC(0-t) (converted)): 22.9 µM·h
- Vd ([2]; SD, plasma, iv, 1 umol/kg, 1 μmol/kg i.v., n = 5, read-out: Vss): 0.146 ± 0.0155 L/kg
- half-life [2, 3]: 212 ± 58.4 min
- MRT last ([2]; in vivo, iv, 1 umol/kg, 1 μmol/kg i.v., n = 5, read-out: MRT0-t (converted)): 3.29 h
- half-life, fold longer than hirulog-1 [2]: 13.1 fold
- half-life, fold longer than peptide 1 [2]: 14.7 fold
- AUC(0-t) ([2]; 1 μmol/kg i.v., n = 5): 22.862 ± 3.463 µM·h
- AUC(0-∞) ([2]; 1 μmol/kg i.v., n = 5): 1590.6 ± 311.7 nmol·min/mL
- remaining at 3 h, 0.41 mM (human thrombin; 3 h): 93%
- remaining at 5 h, 0.41 mM (human thrombin; 5 h): 69%
